Source: patent US20250230138A1, “COMPOUNDS HAVING A T-STRUCTURE FORMED BY AT LEAST FOUR CYCLES FOR USE IN THE TREATMENT OF CANCER AND OTHER INDICATIONS” (TheRas, Inc., priority 2022, published 2025)
pIC50: −log10 of the molar value. Read-outs that look alike come from different tables or passages of the source.

Legend:
pAKT in BT474 cells = assay: Cell-based pAKT HTRF assay in BT474 cells; details: BT474 cells, 4 hr incubation, read-out: pAKT inhibition IC50 in BT474 cells
Summary of the method: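 pAKT was measured by HTRF after a 4 hr compound exposure in BT474 cells (DMEM, 10% FBS, 0.25% DMSO), using 9 concentrations from 3 μM in 3-fold steps. Cell lysates were incubated with the Eu cryptate/d2 antibody pair at room temperature for 4 to 24 h. The plate was then read at 320 nm excitation and 615 nm emission.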

[1] = molecular target: Cys242 in human PIK3CA (157-299) (Homo sapiens (Human), UniProt P42336); assay: Covalent modification assay using MALDI-TOF MS; type: biochemical; details: 4 h reaction time point
Cys242 in human PIK3CA (157-299), sequence (P42336 157-299): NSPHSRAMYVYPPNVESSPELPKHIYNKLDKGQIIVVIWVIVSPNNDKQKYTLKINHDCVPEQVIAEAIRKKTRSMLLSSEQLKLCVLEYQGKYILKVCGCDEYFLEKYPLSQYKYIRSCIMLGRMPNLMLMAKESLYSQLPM
Summary of the method: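 PIK3CA (157-299), 3.33 or 1 μM in 20 mM HEPES, 150 mM NaCl, 2 mM MgCl2, pH 7.3, was incubated with compound at room temperature in the dark for 15 min, 30 min, 2 h or 4 h. Linear MALDI-TOF read-out; % modification = adduct peak height over summed heights of all protein species.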

[2] = 3.33 μM protein target, 1:7.5 protein to compound ratio (compounds 1-852)
[3] = 1 μM protein target, 1:5 protein to compound ratio (compounds 853-1279)
[4] = Homo sapiens, BT-474, Compounds 10-999

| Compound | pIC50 (pAKT in BT474 cells; Compounds 10-999) | % of modification [1, 2] | % of modification [1, 3] | pIC50 (pAKT in BT474 cells; Compounds 1000-1279) | pIC50 (pAKT in BT474 cells; [4]) |
| --- | --- | --- | --- | --- | --- |
| C=CC(=O)N1Cc2cc(-c3nc(-c4ccc5[nH]cnc5c4)c4ccsc4c3-c3c(F)cc(F)cc3OCCOC)nn2C[C@H]1C [Compound 720] | > 7.00 | A (percent of modification of PIK3CA protein ≥75%) |  |  |  |
| C=CC(=O)N1CCC(n2cc(-c3nc(-c4cnn5c4NCCC5)c4ccsc4c3-c3ccc(F)cc3OCCOC)cn2)CC1 [Compound 68] | 6.00 to 7.00 | A (percent of modification of PIK3CA protein ≥75%) |  |  |  |
| C=CC(=O)N1Cc2cc(-c3nc(-c4ccc5cnn(C)c5c4)c4ccsc4c3-c3c(F)cc(F)cc3OCC(C)O)nn2C(C)C1 (stereo not shown) [Compound 680] | > 7.00 | A (percent of modification of PIK3CA protein ≥75%) |  |  |  |
| C=CC(=O)N1CCn2nc(-c3nc(-c4cnc5c(cnn5C)c4)c4ccsc4c3-c3c(F)cc(F)cc3OC[C@@H](C)O)cc2[C@H]1C [Compound 893] | > 7.00 |  | A (percent of modification of PIK3CA protein ≥75%) |  |  |
| C=CC(=O)N1CCn2nc(-c3nc(-c4ccc5cnncc5c4)c4ccsc4c3-c3c(F)cc(F)cc3OCC(C)O)cc2C1C (stereo not shown) [Compound 678] | > 7.00 | A (percent of modification of PIK3CA protein ≥75%) |  |  |  |
| C=CC(=O)N1CCn2nc(-c3nc(-c4ccc5c(c4)NC(=O)CN(C)C5)c4ccsc4c3-c3c(F)cc(F)cc3OCCOC)cc2[C@H]1C [Compound 1132, 8-((S)-6-((R)-5-acryloyl-4-methyl-4,5,6,7-tetrahydropyrazolo[1,5-a]pyrazin-2-yl)-7-(2,4-difluoro-6-(2-methoxyethoxy)phenyl)thieno[3,2-c]pyridin-4-yl)-4-methyl-1,3,4,5-tetrahydro-2H-benzo[e][1,4]diazepin-2-one] |  |  | A (percent of modification of PIK3CA protein ≥75%) | > 7.00 |  |
| C=CC(=O)N1Cc2cc(-c3nc(-c4ccc5c(c4)CS(=O)(=O)C5)c4ccsc4c3-c3c(F)cc(F)cc3OCCOC)nn2C[C@H]1C [Compound 746] | > 7.00 | A (percent of modification of PIK3CA protein ≥75%) |  |  |  |
| C=CC(=O)N1CC(n2cc(-c3nc(C4=CCC5(CC4)CNC5)c4ccsc4c3-c3ccc(F)cc3OCCOC)cn2)C1 [Compound 145] | 5.52 to 6.00 | A (percent of modification of PIK3CA protein ≥75%) |  |  |  |
| C=CC(=O)N1CCc2nc(-c3nc(-c4ccc5c(c4)CCN(C)C5)c4ccsc4c3-c3c(F)cc(F)cc3OCC(F)F)sc2C1 [Compound 470] | 6.00 to 7.00 | A (percent of modification of PIK3CA protein ≥75%) |  |  |  |
| C=CC(=O)N1CCc2ccc(-c3nc(-c4cnc(N(C)C)nc4)c4ccsc4c3-c3c(F)cc(F)cc3OCCOC)cc2C1 [Compound 1068] |  |  | D (percent of modification <25%) | < 6.00 |  |
| C=CC(=O)N1CCn2nc(-c3nc(-c4ccc(=O)n(C)c4)c4ccsc4c3-c3ccc(F)cc3OC(C)C)cc2C1 [Compound 201] | > 7.00 | A (percent of modification of PIK3CA protein ≥75%) |  |  |  |
| C=CC(=O)N1CCn2nc(-c3nc(-c4cc(F)c(=O)n(CC(F)F)c4)c4ccsc4c3-c3c(F)cc(F)cc3OCCOC)cc2C1C (stereo not shown) [Compound 1036] |  |  | A (percent of modification of PIK3CA protein ≥75%) | > 7.00 |  |
| C=CC(=O)N1CCc2nc(-c3nc(-c4ccc5c(c4)CNC5=O)c4ccsc4c3-c3c(F)cc(F)cc3OC(C)C)sc2C1 (single isomer, unassigned) [Compound 413] | 5.52 to 6.00 | D (percent of modification <25%) |  |  |  |
| C=CC(=O)N1CC(n2cc(-c3nc(-c4ccc5c(c4)CCNC5)c4ccsc4c3-c3ccc(F)cc3OCCOC)cc(C)c2=O)C1 [Compound 178] | > 7.00 | A (percent of modification of PIK3CA protein ≥75%) |  |  |  |
| C=CC(=O)N1CC(n2cc(-c3nc(N4CCN5CCCC5C4)c4ccsc4c3-c3ccc(F)cc3OCCOC)cn2)C1 (stereo not shown) [Compound 123] | 6.00 to 7.00 | A (percent of modification of PIK3CA protein ≥75%) |  |  |  |
| C=CC(=O)N1CCc2ccc(-c3nc(-c4ccc5c(c4)C(=O)NC5)c4ccsc4c3-c3c(F)cc(F)cc3OCCOC)cc2C1 [Compound 1067] |  |  | D (percent of modification <25%) | < 6.00 |  |
| C=CC(=O)N1CCc2ncc(-c3nc(-c4cnc(N)nc4)c4ccsc4c3-c3c(F)cc(F)cc3OC(C)C)cc2C1 [Compound 372] | > 7.00 | A (percent of modification of PIK3CA protein ≥75%) |  |  |  |
| C=CC(=O)N1CCc2nc(-c3nc(-c4ccc(N)nc4)c4ccsc4c3-c3ccc(F)cc3OCCOC)sc2C1 [Compound 142] | > 7.00 | A (percent of modification of PIK3CA protein ≥75%) |  |  |  |

| Compound | pIC50 (pAKT in BT474 cells; Compounds 10-999) | % of modification [1, 2] | % of modification [1, 3] | pIC50 (pAKT in BT474 cells; Compounds 1000-1279) | pIC50 (pAKT in BT474 cells; [4]) |
| --- | --- | --- | --- | --- | --- |
| C=CC(=O)N1CCn2nc(-c3nc(-c4ccc(C(=O)NC)cc4)c4ccsc4c3-c3c(F)cc(F)cc3OCCOC)cc2C1C (stereo not shown) [Compound 1103] |  |  | A (percent of modification of PIK3CA protein ≥75%) | > 7.00 |  |
| C=CC(=O)N1CCn2nc(-c3nc(-c4ccc5cnncc5c4)c4ccsc4c3-c3c(F)cc(F)cc3OC[C@@H](C)O)cc2[C@H]1C [Compound 895] | > 7.00 |  | A (percent of modification of PIK3CA protein ≥75%) |  |  |
| C=CC(=O)N1CCc2nc(-c3nc(-c4ccc5c(c4)CCN(C)C5)c4ccsc4c3-c3c(F)cc(F)cc3OC(CF)CF)sc2C1 [Compound 522] | 6.00 to 7.00 | A (percent of modification of PIK3CA protein ≥75%) |  |  |  |
| C=CC(=O)N1CCn2nc(-c3nc(-c4ccc(N5CCN(C)CC5)cc4)c4ccsc4c3-c3c(F)cc(F)cc3OCCO)cc2C1C (stereo not shown) [Compound 1089] |  |  | A (percent of modification of PIK3CA protein ≥75%) | > 7.00 |  |
| C=CC(=O)N1Cc2cc(-c3nc(-n4ccccc4=O)c4ccsc4c3-c3c(F)cc(F)cc3OCCOC)nn2C[C@H]1C [Compound 964, 1-[7-[2,4-difluoro-6-(2-methoxyethoxy)phenyl]-6-[(6R)-6-methyl-5-prop-2-enoyl-6,7-dihydro-4H-pyrazolo[1,5-a]pyrazin-2-1]thieno[3,2-c]pyridin-4-yl]pyridin-2-one] |  |  | A (percent of modification of PIK3CA protein ≥75%) |  | > 7.00 |
| C=CC(=O)N1Cc2cc(-c3nc(-c4cnn(C)c4)c4ccsc4c3-c3c(F)cc(F)cc3OCCOC)nn2C[C@H]1C [Compound 577] | > 7.00 | A (percent of modification of PIK3CA protein ≥75%) |  |  |  |
| C=CC(=O)N1CC(n2cc(-c3nc(-c4ccc5c(c4)CNC(=O)C5)c4ccsc4c3-c3cccnc3OC)cn2)C1 [Compound 84, 7-[7-(2-methoxy-3-pyridyl)-6-[1-(1-prop-2-enoylazetidin-3-yl)pyrazol-4-yl]thieno[3,2-c]pyridin-4-yl]-2,4-dihydro-1H-isoquinolin-3-one] |  | B (50%<percent of modification <75%) |  |  | 5.52 to 6.00 |
| C=CC(=O)N1CCn2nc(-c3nc(-c4ccn5ncnc5c4)c4ccsc4c3-c3c(F)cc(F)cc3OCCOC)cc2C1C (stereo not shown) [Compound 985] | > 7.00 |  | A (percent of modification of PIK3CA protein ≥75%) |  |  |
| C=CC(=O)N1CCc2ncc(-c3nc(-c4ccc5c(c4)CCN(C)C5)c4ccsc4c3-c3c(F)cc(F)cc3OC(C)C)cc2C1 [Compound 399] | > 7.00 | A (percent of modification of PIK3CA protein ≥75%) |  |  |  |
| C=CC(=O)N1CCc2ncc(-c3nc(-c4ccc5c(c4)CCNCC5)c4ccsc4c3-c3ccc(F)cc3OC)cc2C1 [Compound 103] | 6.00 to 7.00 | A (percent of modification of PIK3CA protein ≥75%) |  |  |  |
| C=CC(=O)N1CCc2ccc(-c3nc(-c4ccc5c(c4)CNC5=O)c4ccsc4c3-c3c(F)cc(F)cc3OCCO)cc2C1 [Compound 950] | 6.00 to 7.00 |  | D (percent of modification <25%) |  |  |
| C=C(F)C(=O)N1CCn2nc(-c3nc(-c4cnc5c(c4)CN(C)CC5)c4ccsc4c3-c3c(F)cc(F)cc3OC(C)C)cc2C1 [Compound 340] | > 7.00 | B (50%<percent of modification <75%) |  |  |  |
| C=C(F)C(=O)N1CCn2nc(-c3nc(-c4ccc5c(c4)CNC5=O)c4ccsc4c3-c3c(F)cc(F)cc3OC[C@@H](C)O)cc2C1 [Compound 517] | 6.00 to 7.00 | B (50%<percent of modification <75%) |  |  |  |
| C=CC(=O)N1CCc2ccc(-c3nc(-c4ccc5c(c4)CNC5=O)c4ccsc4c3-c3c(F)cc(F)cc3OCCOC)cc2C1 (single isomer, unassigned) [Compound 887] | > 7.00 |  | A (percent of modification of PIK3CA protein ≥75%) |  |  |
| C=CC(=O)N1CCc2cc(-c3nc(-c4ccc5c(c4)C(=O)NC5)c4ccsc4c3-c3c(F)cc(F)cc3OCCOC)nn2CC1 [Compound 1025] |  |  | A (percent of modification of PIK3CA protein ≥75%) | > 7.00 |  |
| C=CC(=O)N1CCc2nc(-c3nc(-c4cnc5c(c4)CCN(C)C5)c4ccsc4c3-c3c(F)cc(F)cc3OC(C)C)sc2C1 [Compound 518] | > 7.00 | A (percent of modification of PIK3CA protein ≥75%) |  |  |  |
| C=CC(=O)N1CCn2nc(-c3nc(-c4ccc5c(cnn5C)c4F)c4ccsc4c3-c3c(F)cc(F)cc3OCCOC)cc2C1C (stereo not shown) [Compound 1144] |  |  | A (percent of modification of PIK3CA protein ≥75%) | > 7.00 |  |
